The record followed here is ChEMBL document CHEMBL5465560, “Selectivity Literature for EUbOPEN Chemogenomic Library” (2024).

Assay [1] concerns the target T1, Cyclin-dependent kinase 11A (Homo sapiens) (UniProt Q9UQ88).
T1 sequence (whole entry): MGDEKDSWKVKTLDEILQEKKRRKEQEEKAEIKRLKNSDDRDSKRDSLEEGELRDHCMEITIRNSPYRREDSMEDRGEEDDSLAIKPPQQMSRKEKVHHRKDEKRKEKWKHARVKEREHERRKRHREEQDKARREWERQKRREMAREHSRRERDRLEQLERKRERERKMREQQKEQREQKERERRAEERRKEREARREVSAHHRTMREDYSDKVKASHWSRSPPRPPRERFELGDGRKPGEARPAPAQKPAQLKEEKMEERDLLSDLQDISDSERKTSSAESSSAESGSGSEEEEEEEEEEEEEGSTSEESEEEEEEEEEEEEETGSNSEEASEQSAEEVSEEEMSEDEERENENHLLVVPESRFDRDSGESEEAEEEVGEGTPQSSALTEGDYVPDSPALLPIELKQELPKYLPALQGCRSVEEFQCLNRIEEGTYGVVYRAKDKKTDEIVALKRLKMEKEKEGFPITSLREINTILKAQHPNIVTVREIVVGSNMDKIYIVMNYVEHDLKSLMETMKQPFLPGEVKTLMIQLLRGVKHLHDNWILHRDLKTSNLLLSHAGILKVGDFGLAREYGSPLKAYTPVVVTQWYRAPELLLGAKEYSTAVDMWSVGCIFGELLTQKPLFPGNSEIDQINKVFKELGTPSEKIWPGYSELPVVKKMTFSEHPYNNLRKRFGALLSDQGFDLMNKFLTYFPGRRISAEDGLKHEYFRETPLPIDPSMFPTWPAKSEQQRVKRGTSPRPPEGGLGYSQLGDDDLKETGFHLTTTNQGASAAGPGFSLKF
Description: Selectivity interaction (Kinase panel (KiNativ target engagement assay in Jurkat cells)) EUB0001635a CDK11A. In kind it is cell-based. The conditions noted are these: Selectivity number of off-targets 0.0, Selectivity number of targets 233.0, Source Knowledge https://www.sciencedirect.com/science/article/pii/S2451945619300674?via%3Dihub, at 1 µM.

Assay [2] concerns the target Serine/threonine-protein kinase SIK3 (Homo sapiens) (UniProt Q9Y2K2). As to the kind of experiment: Selectivity interaction (KinomeScan (DiscoverX)) EUB0000607a SIK3. Particulars: at 10 µM.
Assay [3] has as its target T2, Discoidin domain-containing receptor 2 (Homo sapiens) (UniProt Q16832).
T2 sequence (whole entry): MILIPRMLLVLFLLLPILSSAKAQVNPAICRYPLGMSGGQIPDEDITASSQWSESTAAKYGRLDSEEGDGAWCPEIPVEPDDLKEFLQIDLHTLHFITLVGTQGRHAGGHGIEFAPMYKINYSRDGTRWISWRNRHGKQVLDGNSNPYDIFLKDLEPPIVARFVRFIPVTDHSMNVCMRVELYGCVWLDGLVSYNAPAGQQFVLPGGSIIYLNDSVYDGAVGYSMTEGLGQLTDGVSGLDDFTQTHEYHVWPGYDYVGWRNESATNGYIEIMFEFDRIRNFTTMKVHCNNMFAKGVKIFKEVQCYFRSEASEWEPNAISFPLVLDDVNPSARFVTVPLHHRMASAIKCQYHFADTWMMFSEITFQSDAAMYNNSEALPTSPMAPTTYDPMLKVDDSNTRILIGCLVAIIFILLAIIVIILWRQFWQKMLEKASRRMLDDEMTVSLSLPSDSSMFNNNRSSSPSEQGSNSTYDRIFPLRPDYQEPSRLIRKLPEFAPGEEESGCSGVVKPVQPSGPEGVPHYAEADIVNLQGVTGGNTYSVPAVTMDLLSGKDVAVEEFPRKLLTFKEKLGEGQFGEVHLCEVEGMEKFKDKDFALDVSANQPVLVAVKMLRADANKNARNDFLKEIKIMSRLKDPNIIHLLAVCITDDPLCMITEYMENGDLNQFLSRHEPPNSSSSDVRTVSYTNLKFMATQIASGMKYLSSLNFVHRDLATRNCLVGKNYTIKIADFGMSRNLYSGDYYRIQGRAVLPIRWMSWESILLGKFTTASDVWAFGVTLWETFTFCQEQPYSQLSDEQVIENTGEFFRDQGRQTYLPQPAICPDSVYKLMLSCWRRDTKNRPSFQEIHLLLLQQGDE
As to the kind of experiment: Selectivity interaction (KinomeScan (DiscoverX)) EUB0001079a DDR2. Particulars: at 1 µM.

The target of assay [4] is Dual specificity tyrosine-phosphorylation-regulated kinase 1A (Homo sapiens, UniProt Q13627). Description: Selectivity interaction (KinomeScan (DiscoverX)) EUB0001619a DYRK1A. The conditions noted are these: at 1 µM.
The target in assay [5] is Insulin-like growth factor 1 receptor (Homo sapiens, UniProt P08069). Description: Selectivity interaction (Kinase screening (Nanosyn)) EUB0000604a IGF1R.
In assay [6] the target is Mitogen-activated protein kinase 11 (Homo sapiens) (UniProt Q15759). Description: Selectivity interaction (ProQinase) EUB0000171b MAPK11.
The target in assay [7] is Tyrosine-protein kinase JAK1 (Homo sapiens, UniProt P23458). As to the kind of experiment: Selectivity interaction (KinomeScan (DiscoverX)) EUB0000092b JAK1. Particulars: at 10 µM.
Assay [8] addresses T3, Mitogen-activated protein kinase kinase kinase 12 (Homo sapiens) (UniProt Q12852).
T3 sequence (whole entry): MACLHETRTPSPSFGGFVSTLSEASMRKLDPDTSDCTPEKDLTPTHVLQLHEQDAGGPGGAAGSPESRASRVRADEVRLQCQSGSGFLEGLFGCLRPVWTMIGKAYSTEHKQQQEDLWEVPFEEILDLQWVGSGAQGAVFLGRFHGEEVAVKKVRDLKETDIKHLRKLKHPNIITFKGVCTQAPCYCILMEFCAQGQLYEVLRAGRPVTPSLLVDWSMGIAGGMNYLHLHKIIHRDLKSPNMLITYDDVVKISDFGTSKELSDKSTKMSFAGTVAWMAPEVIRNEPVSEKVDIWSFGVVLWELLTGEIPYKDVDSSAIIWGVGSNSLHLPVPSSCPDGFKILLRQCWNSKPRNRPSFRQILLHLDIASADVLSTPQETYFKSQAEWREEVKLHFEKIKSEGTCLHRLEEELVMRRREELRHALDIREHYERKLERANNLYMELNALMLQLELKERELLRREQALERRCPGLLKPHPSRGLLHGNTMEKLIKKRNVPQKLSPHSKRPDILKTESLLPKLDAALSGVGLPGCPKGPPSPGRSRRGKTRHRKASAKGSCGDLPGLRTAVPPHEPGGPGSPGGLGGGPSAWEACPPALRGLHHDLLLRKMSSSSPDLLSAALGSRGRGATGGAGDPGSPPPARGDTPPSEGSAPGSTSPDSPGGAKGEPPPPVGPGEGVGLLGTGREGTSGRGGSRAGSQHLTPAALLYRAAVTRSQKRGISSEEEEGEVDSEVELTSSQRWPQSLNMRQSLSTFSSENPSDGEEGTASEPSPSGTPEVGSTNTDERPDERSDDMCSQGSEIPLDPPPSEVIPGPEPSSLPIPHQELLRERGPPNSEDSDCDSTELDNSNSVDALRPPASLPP
Description: Selectivity interaction (KinomeScan (DiscoverX)) EUB0000618a MAP3K12. The conditions noted are these: at 10 µM.

Mitogen-activated protein kinase 11 (Homo sapiens), sequence (Q15759 whole entry): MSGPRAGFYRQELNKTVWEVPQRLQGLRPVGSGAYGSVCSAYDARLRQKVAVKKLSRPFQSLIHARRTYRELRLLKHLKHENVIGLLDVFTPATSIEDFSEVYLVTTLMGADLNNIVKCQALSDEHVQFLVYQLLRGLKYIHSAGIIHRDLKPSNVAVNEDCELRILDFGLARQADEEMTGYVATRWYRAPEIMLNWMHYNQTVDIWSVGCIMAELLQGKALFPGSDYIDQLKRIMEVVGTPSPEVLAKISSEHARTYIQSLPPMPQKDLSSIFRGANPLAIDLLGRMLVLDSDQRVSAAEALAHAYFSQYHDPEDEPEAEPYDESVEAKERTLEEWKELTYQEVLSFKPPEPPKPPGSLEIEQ
Insulin-like growth factor 1 receptor, sequence (P08069 31-736 limits assumed): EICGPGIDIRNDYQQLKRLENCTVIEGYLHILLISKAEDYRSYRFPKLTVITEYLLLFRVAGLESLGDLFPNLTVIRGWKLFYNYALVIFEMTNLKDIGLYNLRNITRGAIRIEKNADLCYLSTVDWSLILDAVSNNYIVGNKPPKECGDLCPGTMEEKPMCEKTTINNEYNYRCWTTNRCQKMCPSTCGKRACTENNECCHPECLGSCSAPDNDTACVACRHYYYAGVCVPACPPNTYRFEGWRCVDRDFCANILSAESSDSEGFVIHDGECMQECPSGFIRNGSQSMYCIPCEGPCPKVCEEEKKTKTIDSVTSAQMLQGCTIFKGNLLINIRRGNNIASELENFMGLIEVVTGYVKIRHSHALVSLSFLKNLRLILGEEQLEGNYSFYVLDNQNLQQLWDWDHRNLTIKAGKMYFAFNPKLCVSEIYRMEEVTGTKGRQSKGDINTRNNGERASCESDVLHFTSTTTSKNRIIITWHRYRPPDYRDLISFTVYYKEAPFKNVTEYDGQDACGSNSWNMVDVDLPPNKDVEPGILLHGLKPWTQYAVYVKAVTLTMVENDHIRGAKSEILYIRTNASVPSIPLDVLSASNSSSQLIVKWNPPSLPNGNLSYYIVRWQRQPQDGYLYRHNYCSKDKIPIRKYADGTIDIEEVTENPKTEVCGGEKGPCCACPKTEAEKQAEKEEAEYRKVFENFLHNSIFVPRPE
Insulin-like growth factor 1 receptor, sequence (P08069 741-1367 limits assumed): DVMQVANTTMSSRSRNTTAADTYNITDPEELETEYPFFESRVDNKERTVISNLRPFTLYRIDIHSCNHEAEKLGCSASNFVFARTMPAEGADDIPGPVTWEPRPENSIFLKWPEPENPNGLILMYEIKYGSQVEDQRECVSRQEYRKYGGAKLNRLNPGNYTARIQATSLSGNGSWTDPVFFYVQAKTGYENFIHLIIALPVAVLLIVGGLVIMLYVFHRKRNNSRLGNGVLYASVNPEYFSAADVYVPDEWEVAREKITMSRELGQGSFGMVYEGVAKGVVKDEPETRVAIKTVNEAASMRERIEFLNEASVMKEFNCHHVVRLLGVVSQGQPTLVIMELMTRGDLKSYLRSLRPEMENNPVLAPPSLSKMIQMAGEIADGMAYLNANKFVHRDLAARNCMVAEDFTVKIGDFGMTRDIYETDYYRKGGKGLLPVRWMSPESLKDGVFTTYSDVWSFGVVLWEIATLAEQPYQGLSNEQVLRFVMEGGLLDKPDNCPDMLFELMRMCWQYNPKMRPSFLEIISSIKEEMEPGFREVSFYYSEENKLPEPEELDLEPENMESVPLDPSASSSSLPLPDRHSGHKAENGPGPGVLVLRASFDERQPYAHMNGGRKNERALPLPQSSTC
Serine/threonine-protein kinase SIK3 (Homo sapiens), sequence (Q9Y2K2 whole entry, looked up, the tested form may be a part): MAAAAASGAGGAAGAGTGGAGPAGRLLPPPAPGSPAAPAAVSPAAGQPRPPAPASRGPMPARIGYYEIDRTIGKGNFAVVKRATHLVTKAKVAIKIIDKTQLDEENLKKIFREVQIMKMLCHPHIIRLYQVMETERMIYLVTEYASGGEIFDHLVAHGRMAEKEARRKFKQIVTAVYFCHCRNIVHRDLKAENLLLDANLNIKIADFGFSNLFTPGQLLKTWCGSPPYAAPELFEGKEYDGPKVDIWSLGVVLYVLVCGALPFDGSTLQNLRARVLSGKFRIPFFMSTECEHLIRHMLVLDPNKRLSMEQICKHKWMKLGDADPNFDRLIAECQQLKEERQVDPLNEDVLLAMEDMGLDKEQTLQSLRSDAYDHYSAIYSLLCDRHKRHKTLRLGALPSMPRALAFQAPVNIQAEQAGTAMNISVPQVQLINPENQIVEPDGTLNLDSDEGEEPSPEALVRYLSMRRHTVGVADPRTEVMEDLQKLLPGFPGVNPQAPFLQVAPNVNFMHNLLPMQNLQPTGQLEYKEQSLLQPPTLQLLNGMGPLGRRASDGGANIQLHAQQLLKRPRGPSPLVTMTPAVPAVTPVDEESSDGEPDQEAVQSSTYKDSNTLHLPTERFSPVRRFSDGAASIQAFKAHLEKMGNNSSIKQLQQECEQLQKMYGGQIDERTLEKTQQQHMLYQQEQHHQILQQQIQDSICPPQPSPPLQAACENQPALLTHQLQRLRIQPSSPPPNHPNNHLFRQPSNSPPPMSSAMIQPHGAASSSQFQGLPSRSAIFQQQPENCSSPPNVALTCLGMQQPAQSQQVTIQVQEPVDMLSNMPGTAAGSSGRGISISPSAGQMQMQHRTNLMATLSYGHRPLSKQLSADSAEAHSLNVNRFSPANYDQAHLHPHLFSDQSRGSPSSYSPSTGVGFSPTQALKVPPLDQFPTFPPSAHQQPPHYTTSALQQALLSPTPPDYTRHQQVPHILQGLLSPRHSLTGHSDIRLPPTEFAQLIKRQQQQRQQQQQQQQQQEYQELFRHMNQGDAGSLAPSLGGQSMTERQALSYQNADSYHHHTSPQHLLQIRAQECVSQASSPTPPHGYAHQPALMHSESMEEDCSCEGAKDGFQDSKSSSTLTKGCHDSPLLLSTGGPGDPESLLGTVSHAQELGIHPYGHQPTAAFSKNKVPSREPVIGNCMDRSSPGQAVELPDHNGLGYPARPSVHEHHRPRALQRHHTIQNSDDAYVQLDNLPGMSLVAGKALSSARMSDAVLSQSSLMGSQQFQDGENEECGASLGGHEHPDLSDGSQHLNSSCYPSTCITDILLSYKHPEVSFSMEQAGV
Tyrosine-protein kinase JAK1, sequence (P23458 whole entry): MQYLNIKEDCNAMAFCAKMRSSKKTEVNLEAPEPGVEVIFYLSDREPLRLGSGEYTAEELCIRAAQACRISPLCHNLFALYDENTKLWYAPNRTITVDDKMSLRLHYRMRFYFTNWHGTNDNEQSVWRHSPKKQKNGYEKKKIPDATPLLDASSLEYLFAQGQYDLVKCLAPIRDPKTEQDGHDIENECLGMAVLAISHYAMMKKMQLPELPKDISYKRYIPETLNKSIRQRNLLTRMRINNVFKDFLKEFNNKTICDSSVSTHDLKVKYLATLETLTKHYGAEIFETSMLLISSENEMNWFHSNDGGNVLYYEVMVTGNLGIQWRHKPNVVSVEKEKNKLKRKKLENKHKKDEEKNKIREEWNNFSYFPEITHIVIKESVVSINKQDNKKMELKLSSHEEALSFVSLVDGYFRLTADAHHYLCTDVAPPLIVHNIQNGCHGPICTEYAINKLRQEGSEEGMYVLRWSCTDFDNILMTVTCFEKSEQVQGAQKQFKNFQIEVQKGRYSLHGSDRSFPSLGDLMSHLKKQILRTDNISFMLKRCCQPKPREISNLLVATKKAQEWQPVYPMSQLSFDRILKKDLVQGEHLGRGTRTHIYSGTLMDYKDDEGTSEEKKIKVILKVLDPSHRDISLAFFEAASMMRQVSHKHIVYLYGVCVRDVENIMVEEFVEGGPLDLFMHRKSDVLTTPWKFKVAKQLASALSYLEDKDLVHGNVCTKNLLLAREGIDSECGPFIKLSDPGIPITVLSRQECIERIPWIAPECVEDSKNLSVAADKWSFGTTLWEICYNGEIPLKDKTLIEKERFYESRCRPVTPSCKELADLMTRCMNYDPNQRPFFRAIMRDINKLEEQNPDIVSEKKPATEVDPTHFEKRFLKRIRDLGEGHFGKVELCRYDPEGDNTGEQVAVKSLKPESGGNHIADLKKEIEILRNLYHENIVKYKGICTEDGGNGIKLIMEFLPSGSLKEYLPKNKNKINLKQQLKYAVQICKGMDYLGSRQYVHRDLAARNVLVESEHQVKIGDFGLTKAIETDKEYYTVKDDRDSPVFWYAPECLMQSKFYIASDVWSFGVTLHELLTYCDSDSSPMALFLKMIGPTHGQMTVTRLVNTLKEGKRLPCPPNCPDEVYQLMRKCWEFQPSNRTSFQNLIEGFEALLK

Consider `C=CC(=O)Nc1ccc(C(=O)Nc2[nH]nc3c2CN(C(=O)N[C@H](CN(C)C)c2ccccc2)C3(C)C)cc1`, for which the % of engagement in assay [1] was -15.7%. For the molecule `CNC(=O)Nc1ccc(-c2nc(N3CC4CCC(C3)O4)c3cnn(C4CCC5(CC4)OCCO5)c3n2)cc1`, in assay [2], the % of control was determined as 35%.

`Nc1cnc(N2CCc3cc(S(=O)(=O)Nc4c(F)cc(Cl)cc4F)cc(N4CCCC4=O)c32)nc1` [TP-020n] came in with a % of control in assay [3] of 100%. As for `N#Cc1cccc(-c2c[nH]c3ncnc(N4CCOCC4)c23)c1`, the % of control in assay [4] is 78%. `Cc1cnc(Nc2ccc(F)cc2Cl)nc1-c1c[nH]c(C(=O)N[C@H](CO)c2cccc(Cl)c2)c1`: the % of inhibition in assay [5] was found to be 2%. With `C=CC(=O)Nc1cccc(C(=O)Nc2ccc(Nc3cc(-c4[nH]c(SC)nc4C)ccn3)cc2)c1`, the results for the % of control in assay [6] (at 1 µM) and in assay [6] (at 5 µM) were 93% and 75%, respectively. Turning to `CCC(=O)N1CCN(c2ccc(-n3c(=O)ccc4cnc5ccc(-c6cnc7ccccc7c6)cc5c43)cc2C(F)(F)F)CC1`, in assay [7], the % of control came to 82%.

Take `O[C@H]1CC[C@H](Nc2ncc3nc(Nc4c(F)cc(F)cc4F)n([C@H]4CCOC4)c3n2)CC1`: the % of control in assay [8] was 100%.
